Laboratory results reported in ChEMBL document CHEMBL1201862, “PubChem BioAssay data set” (2004).
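Step 1: Grow cells in 96-well plates. Step 2: Expose to compound for 48 hours at 5 concentrations. Step 3: Interpolate endpoints linearly; if unreached, use highest concentration. Here, GI50 denotes the concentration required for 50% inhibition of growth.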 Activity calls are given as the source filed them. No stated cut-off is given here; in the data, active = GI50 up to about 1.1 µM and inactive = higher.

Tests used:
Test in all cases: DTP human tumour cell line panel, 48 h
[1] = test system: NCI-H522
[2] = test system: SF-268
[3] = test system: HCT-116
[4] = test system: RXF 393
[5] = test system: A549
[6] = test system: NCI-H23
[7] = test system: OVCAR-8
[8] = test system: HT-29
[9] = test system: K562
[10] = test system: NCI-H226
[11] = test system: COLO 205
[12] = test system: SK-MEL-28
[13] = test system: UO-31
[14] = test system: CCRF-CEM
[15] = test system: MOLT-4
[16] = test system: CAKI-1
[17] = test system: IGROV-1
[18] = test system: SW-620
[19] = test system: HCC 2998
[20] = test system: KM-20L2
[21] = test system: A498
[22] = test system: RXF 631
[23] = test system: HL-60
[24] = test system: SK-MEL-2
[25] = test system: RPMI-8226
[26] = test system: M19-MEL
[27] = test system: SN12C
[28] = test system: SK-OV-3
[29] = test system: DLD-1
[30] = test system: SNB-19
[31] = test system: SR
[32] = test system: M14
[33] = test system: OVCAR-4
[34] = test system: HOP-62
[35] = test system: U-251
[36] = test system: UACC-62
[37] = test system: 786-0
[38] = test system: TK-10
[39] = test system: LXFL 529
[40] = test system: SNB-78
[41] = test system: HOP-18
[42] = test system: HCT-15
[43] = test system: SK-MEL-5
[44] = test system: EKVX
[45] = test system: OVCAR-3
[46] = test system: SNB-75
[47] = test system: DMS-114
[48] = test system: ACHN
[49] = test system: KM12
[50] = test system: Malme-3M
[51] = test system: UACC-257
[52] = test system: DMS-273
[53] = test system: OVCAR-5
[54] = test system: SF-539
[55] = test system: NCI-H460
[56] = test system: LOX IMVI
[57] = test system: SF-295
[58] = test system: XF498
[59] = test system: HOP-92

Measured: GI50

Cc1ccc2c(c1-c1ccccc1)C(=O)OC2
> 100 µM: [42]
inactive: [1] > 100 µM | [2] > 100 µM | [3] > 100 µM | [4] > 100 µM | [5] > 100 µM | [6] > 100 µM | [7] > 100 µM | [8] > 100 µM | [9] 56.1 µM | [10] > 100 µM | [11] > 100 µM | [12] > 100 µM | [13] 75 µM | [14] > 100 µM | [15] 94.4 µM | [16] > 100 µM | [17] > 100 µM | [18] > 100 µM | [19] > 100 µM | [20] 20.4 µM | [21] > 100 µM | [22] > 100 µM | [23] > 100 µM | [24] > 100 µM | [25] > 100 µM | [26] > 100 µM | [27] > 100 µM | [28] > 100 µM | [29] > 100 µM | [30] > 100 µM | [31] 90.6 µM | [32] > 100 µM | [33] > 100 µM | [34] > 100 µM | [35] > 100 µM | [36] 28.7 µM | [37] > 100 µM | [38] > 100 µM | [39] > 100 µM | [40] 37 µM | [41] > 100 µM | [43] > 100 µM | [44] 17.1 µM | [45] 76.7 µM | [46] > 100 µM | [47] 99.3 µM | [48] > 100 µM | [49] > 100 µM | [50] > 100 µM | [51] > 100 µM | [52] > 100 µM

Cc1ccc(/C=C/C(=O)C(C)(C)CN2CCCCC2)cc1
inactive: [1] 3.33 µM | [2] 15.7 µM | [3] 10.5 µM | [4] 5.11 µM | [5] 5.68 µM | [6] 11.5 µM | [7] 2.81 µM | [8] 3.24 µM | [9] 2.27 µM | [10] 13.2 µM | [11] 3.66 µM | [12] 16.4 µM | [13] 10.3 µM | [53] 15.2 µM | [14] 3.11 µM | [15] 2.47 µM | [16] 3.78 µM | [17] 11.4 µM | [18] 2.72 µM | [19] 15 µM | [20] 2.86 µM | [21] 6.24 µM | [22] 14.5 µM | [24] 10.7 µM | [25] 3.49 µM | [26] 11.8 µM | [27] 3.9 µM | [28] 11 µM | [30] 2.57 µM | [32] 7.31 µM | [33] 10.1 µM | [54] 4.6 µM | [34] 15.7 µM | [35] 13.7 µM | [36] 11.1 µM | [37] 6 µM | [38] 11.6 µM | [39] 6.62 µM | [40] 7.29 µM | [43] 2.86 µM | [55] 8.28 µM | [44] 3.18 µM | [45] 2.81 µM | [46] 5.37 µM | [56] 9.55 µM | [48] 11.2 µM | [57] 7.8 µM | [49] 3.28 µM | [50] 13.3 µM | [58] 11.7 µM | [51] 7.76 µM | [52] 3.02 µM
3.76 µM: [42]

CCC(=O)C12OC3OC(C)(C)OC3C1OC(C)(C)O2 (stereo not drawn)
inactive: [1] > 100 µM | [2] > 100 µM | [3] > 100 µM | [4] > 100 µM | [5] > 100 µM | [59] > 100 µM | [6] > 100 µM | [7] > 100 µM | [8] > 100 µM | [9] > 100 µM | [10] > 100 µM | [12] > 100 µM | [13] > 100 µM | [53] > 100 µM | [14] > 100 µM | [15] > 100 µM | [16] > 100 µM | [17] > 100 µM | [18] > 100 µM | [19] > 100 µM | [21] > 100 µM | [22] > 100 µM | [23] > 100 µM | [24] > 100 µM | [26] > 100 µM | [27] > 100 µM | [28] > 100 µM | [29] > 100 µM | [30] > 100 µM | [31] > 100 µM | [32] > 100 µM | [33] > 100 µM | [54] > 100 µM | [34] > 100 µM | [35] > 100 µM | [36] > 100 µM | [37] > 100 µM | [38] > 100 µM | [40] > 100 µM | [43] > 10 µM | [55] > 100 µM | [44] > 100 µM | [45] > 100 µM | [46] > 100 µM | [48] > 100 µM | [57] > 100 µM | [49] > 100 µM | [50] 9.44 µM | [58] > 100 µM | [51] > 100 µM | [52] > 100 µM

N#Cc1ccc([N+](=O)[O-])cc1NC(N)=S
> 100 µM: [42]
inactive: [1] > 100 µM | [2] > 100 µM | [3] > 100 µM | [5] > 100 µM | [59] > 100 µM | [7] > 100 µM | [8] > 100 µM | [11] > 100 µM | [12] > 100 µM | [13] > 100 µM | [53] > 100 µM | [15] > 100 µM | [16] > 100 µM | [17] > 100 µM | [18] > 100 µM | [19] > 100 µM | [20] > 100 µM | [21] > 100 µM | [22] > 100 µM | [24] > 100 µM | [25] > 100 µM | [26] > 100 µM | [27] > 100 µM | [28] > 100 µM | [30] > 100 µM | [31] > 100 µM | [32] > 100 µM | [54] > 100 µM | [34] > 100 µM | [35] > 100 µM | [39] 16.3 µM | [40] > 100 µM | [41] > 100 µM | [43] > 100 µM | [44] > 100 µM | [45] > 100 µM | [46] > 100 µM | [57] > 100 µM | [49] > 100 µM | [50] > 100 µM | [58] > 100 µM | [52] > 100 µM

CC1(c2ccc(F)cc2)C(C#N)C(=O)NC(=O)C1C#N (stereo not drawn)
inactive: [1] > 100 µM | [2] > 100 µM | [4] 60.1 µM | [5] > 100 µM | [59] > 100 µM | [6] > 100 µM | [7] > 100 µM | [8] > 100 µM | [9] > 100 µM | [10] > 100 µM | [11] > 100 µM | [12] > 100 µM | [13] 83.8 µM | [53] > 100 µM | [14] > 100 µM | [15] > 100 µM | [16] > 100 µM | [17] > 100 µM | [18] > 100 µM | [19] > 100 µM | [20] > 100 µM | [21] 41.4 µM | [22] > 100 µM | [23] > 100 µM | [24] > 100 µM | [25] > 100 µM | [26] > 100 µM | [27] > 100 µM | [28] > 100 µM | [29] > 100 µM | [30] > 100 µM | [32] > 100 µM | [33] > 100 µM | [54] > 100 µM | [34] 75.2 µM | [36] > 100 µM | [37] > 100 µM | [38] > 100 µM | [39] > 100 µM | [43] > 100 µM | [55] > 100 µM | [44] 58.1 µM | [45] > 100 µM | [46] 32.3 µM | [47] > 100 µM | [56] > 100 µM | [48] > 100 µM | [57] > 100 µM | [49] > 100 µM | [50] > 100 µM | [58] > 100 µM | [51] > 100 µM | [52] > 100 µM
> 100 µM: [42]
